Source: patent US8178530B2, “Imidazolopyrazine compounds useful for the treatment of degenerative and inflammatory diseases” (Janssen Pharmaceutica NV, priority 2006, dated 2012)
Where two headings read alike, the source gives them in different places.

Legend:
MAPKAPK5 = target: T1, MAPKAPK5 (Homo sapiens, UniProt Q8IW41); test: MAPKAP-K5 assay (FlashPlate, 33P-ATP); type: biochemical; conditions: 0.6 μM ATP, 30 minutes at room temperature
T1 construct: 1 mU MAPKAP-K5
T1 sequence (Q8IW41 1-473): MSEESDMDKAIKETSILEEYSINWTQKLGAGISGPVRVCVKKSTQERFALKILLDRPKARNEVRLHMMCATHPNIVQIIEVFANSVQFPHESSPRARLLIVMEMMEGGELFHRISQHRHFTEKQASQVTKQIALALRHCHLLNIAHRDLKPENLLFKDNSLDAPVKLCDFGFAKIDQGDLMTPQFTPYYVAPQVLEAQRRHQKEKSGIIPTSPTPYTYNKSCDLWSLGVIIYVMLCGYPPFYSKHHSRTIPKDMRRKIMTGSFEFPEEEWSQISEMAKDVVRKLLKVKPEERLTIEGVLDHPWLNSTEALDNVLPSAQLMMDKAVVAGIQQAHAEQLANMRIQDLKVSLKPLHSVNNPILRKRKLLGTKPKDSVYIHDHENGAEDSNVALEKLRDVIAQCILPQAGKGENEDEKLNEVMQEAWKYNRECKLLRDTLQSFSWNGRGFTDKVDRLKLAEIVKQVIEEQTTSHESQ
Protocol: 3 μM MAPKAP-K5 peptide substrate

[1] = tested on: TNFα release by human PBMCs; test: Cytokine release by LPS-stimulated human PBMCs (TNFα ELISA); type: cell-based; conditions: LPS 1 μg/mL, 24 hr
Protocol: Human peripheral blood mononuclear cells (PBMCs) are isolated from “buffy coats” prepared from the blood of healthy volunteers, isolated essentially according to method of Bøyum (1984). In brief, buffy coat is diluted 1:1 with 1×PBS (Gibco) and 30 mL is carefully put on top of 20 mL Lymphoprep™ (Lucron Bioproducts) in 50 mL Falcon tubes. After centrifugation (35 min, 400 g, 18° C.) the mononuclear cells are collected from the white interphase and washed 3 times with 1×PBS by resuspending and centrifugation (10 min, 200 g). Isolated PBMCs are finally resuspended in RPMI 1640 (Cat. No. 21875, Gibco) that is supplemented with 10% heat-inactivated FBS (Hyclone).
For the assay PBMCs are seeded at 2.5E6 cells/mL in 160 μL in 96-well plates (Nunc). Serial dilution of the test compounds are made first in DMSO (Sigma) and then diluted 50-fold in M199 medium (Gibco) containing 1% heat-inactivated FBS. Compounds are further 1/10 diluted in the assay plates to obtain final DMSO concentration of 0.2%. Cells are preincubated with the compounds for 1 hr at 37° C., 5% CO2. Then, cells are stimulated with LPS (Escherichia coli serotype 026:B6, Cat. No. L2654, Sigma) that is added in a volume of 20 μL to a final concentration of 1 μg/mL and cells are further cultured for 24 hr. The plates are centrifuged and the supernatant is collected and stored at −80° C. until analysis of appropriate dilutions in ELISAs.
The following 384-well chemiluminescent ELISA protocol was developed to measure TNFα levels in the supernatant: White Lumitrac 600 384-well plates (Greiner) are coated with (40 μL/well) anti-TNFα capture antibody (Cat. No. 551220, BD Pharmingen) that is diluted to 1 μg/mL in 1×PBS (Gibco). After overnight incubation at 4° C., plates are washed with 1×PBS (80 g NaCl, 2 g KCl (Sigma), 11.5 g Na2HPO4.7H2O and 2 g KH2PO4 in 10 L milliQ; pH 7.4) and blocked with 100 μL/well buffer B (1×PBS containing 1% BSA (Sigma), 5% sucrose (Sigma) and 0.05% NaN3 (Sigma)). After 4 hr incubation at RT, blocking buffer is removed and plates are washed once with PBST (1×PBS with 0.05% Tween-20 (Sigma)). Then, 40 μL of sample is transferred to the ELISA plates and plates are incubated at 4° C. Next day, plates are washed 3 times (twice with PBST and once with PBS) and 35 μL/well biotinylated anti-TNFα antibody (Cat. No. 554511, BD Pharmingen) diluted first to a concentration of 250 ng/ml in buffer D (1×PBS with 1% BSA) is added. After 2 h of incubation at RT, plates are washed as described above and 35 μL/well of a 1/2000 dilution of streptavidin-HRP conjugate (Cat. No. SNN2004, Biosource) in buffer D is added. After 45 min, plates are washed as described above and incubated for 5 min with 50 μL/well BM Chemiluminescence ELISA Substrate POD (Roche). Readout is performed on the Luminoscan Ascent Luminometer (Labsystems) with an integration time of 100 msec delivering raw data (RLU: relative luminescence units). The following controls are included in the experiments, a maximal signal control, in which the cells are activated by LPS but only the 0.2% DMSO vehicle (and thus no compound) is added. This control indicates the maximal level of TNFα that can be achieved in the test. A minimal signal control is also included in these experiments. Here, cells are not triggered. This control returns the basal TNFα levels produced by the PBMCs. The percent inhibition (PIN) of the TNFα release, achieved by the compounds is then calculated based on the RLU data returned by the ELISA with following formula: 100−[((TNFα level compound X at concentration Y−minimal TNFα levels)/(maximal TNFα levels−minimal TNFα levels))×100]. Where compounds are tested at 8 concentrations (1/3 serial dilution), EC50-values can be calculated by curve fitting of the means of the PIN data achieved for a compound at each test concentration. […]

| Molecule | IC50 (MAPKAPK5) [µM] | EC50 ([1]; PBMC) [µM] | EC50 ([1]; read-out: PBMC EC50) [µM] |
| --- | --- | --- | --- |
| O=C(c1ccc(Nc2ncc(-c3cn[nH]c3)n3ccnc23)cc1)N1CCOCC1 [Compound 45] | 0.501 to 1 | > 1 | – |
| Cc1[nH]ncc1-c1cnc(Nc2ccc(N3CCN(C)CC3)cc2)c2nccn12 [Compound 119, (4-(4-Methylpiperazin-1-yl)phenyl)-[5-(5-methyl-1H-pyrazol-4-yl)imidazo[1,2-a]pyrazin-8-yl]amine] | 0.101 to 0.5 | > 1 | – |
| CN1CCN(c2ccc(Nc3ncc(-c4ccc(C(N)=O)s4)n4ccnc34)cc2)CC1 [Compound 127, (4-(4-Methylpiperazin-1-yl)phenyl)-[5-(2-carboxamido-5-thienyl)imidazo[1,2-a]pyrazin-8-yl]amine] | 0.101 to 0.5 | > 1 | – |
| 4-(8-{4-[1-(2,2,2-Trifluoroethyl)piperidin-4-yl]phenylamino}imidazo[1,2-a]pyrazin-5-yl)thiophene-2-carboxylic acid amide [Compound 192] | 0.001 to 0.1 | – | > 1 |
| CS(=O)(=O)c1ccc(Nc2ncc(-c3cn[nH]c3)n3ccnc23)cc1 [Compound 71] | 0.101 to 0.5 | > 1 | – |
| Cn1cnnc1-c1ccc(Nc2ncc(-c3ccc(C(N)=O)cc3)n3ccnc23)cc1 [Compound 141] | > 1 | > 1 | – |
| CCN(CC)CCNC(=O)c1ccc(Nc2ncc(-c3cn[nH]c3)n3ccnc23)cc1 [Compound 32, N-(2-Diethylamino-ethyl)-4-[5-(1H-pyrazol-4-yl)-imidazo[1,2-a]pyrazin-8-ylamino]-benzamide] | 0.101 to 0.5 | > 1 | – |
| CN1CCC(COc2ccc(Nc3ncc(-c4ccc(C(N)=O)c(F)c4)n4ccnc34)cc2)CC1 [Compound 159, 2-Fluoro-4-{8-[4-(1-methyl-piperidin-4-ylmethoxy)-phenylamino]-imidazo[1,2-a]pyrazin-5-yl}-benzamide] | > 1 | > 1 | – |
| CN1CCN(c2ccc(Nc3ncc(-c4ccc(C(N)=O)cn4)n4ccnc34)cc2)CC1 [Compound 128] | > 1 | > 1 | – |
| CN1CCN(c2ccc(Nc3ncc(-c4ccc(C(N)=O)c(Cl)c4)n4ccnc34)cc2)CC1 [Compound 124] | > 1 | 0.501 to 1 | – |
| CCN(CC)CCNC(=O)c1ccc(Nc2ncc(-c3cn[nH]c3)n3ccnc23)c(F)c1 [Compound 83] | 0.101 to 0.5 | > 1 | – |
| CC(C)N1CCN(c2ccc(Nc3ncc(-c4coc(C(N)=O)c4)n4ccnc34)cc2)CC1 [Compound 204, 4-{8-[4-(4-Isopropyl-piperazin-1-yl)-phenylamino]-imidazo[1,2-a]pyrazin-5-yl}-furan-2-carboxylic acid amide] | 0.101 to 0.5 | > 1 | – |
| CN(C)c1ccc(CNC(=O)c2ccc(Nc3ncc(-c4cn[nH]c4)n4ccnc34)cc2)cc1 [Compound 89] | > 1 | > 1 | – |
| CN1CCC(NC(=O)c2ccc(Nc3ncc(-c4cn[nH]c4)n4ccnc34)cc2)C1 (stereo not shown) [Compound 64] | 0.101 to 0.5 | > 1 | – |
| CCN(CC)CCNS(=O)(=O)c1ccc(Nc2ncc(-c3cn[nH]c3)n3ccnc23)cc1 [Compound 69, N-(2-Diethylaminoethyl)-4-[5-(1H-pyrazol-4-yl)imidazo[1,2-a]pyrazin-8-ylamino]benzenesulfonamide] | 0.101 to 0.5 | 0.501 to 1 | – |
| CN(C)Cc1cn(-c2ccc(Nc3ncc(-c4ccc(C(N)=O)cc4)n4ccnc34)cc2)nn1 [Compound 166, 4-{8-[4-(4-Dimethylaminomethyl-[1,2,3]triazol-1-yl)-phenylamino]-imidazo[1,2-a]pyrazin-5-yl}-benzamide] | > 1 | > 1 | – |
| c1cn2c(-c3cn[nH]c3)cnc(Nc3ccc(OCCN4CCOCC4)cc3)c2n1 [Compound 150, [4-(2-Morpholin-4-yl-ethoxy)-phenyl]-[5-(1H-pyrazol-4-yl)-imidazo[1,2-a]pyrazin-8-yl]-amine] | 0.501 to 1 | > 1 | – |
| CN1CCN(c2ccc(Nc3ncc(-c4ccnc(F)c4)n4ccnc34)cc2)CC1 [Compound 125, [5-(2-Fluoro-pyridin-4-yl)-imidazo[1,2-a]pyrazin-8-yl]-[4-(4-methyl-piperazin-1-yl)-phenyl]-amine] | > 1 | > 1 | – |
| c1cn2c(-c3cn[nH]c3C3CC3)cnc(Nc3ccc(N4CCOCC4)cc3)c2n1 [Compound 160, [5-(5-Cyclopropyl-1H-pyrazol-4-yl)-imidazo[1,2-a]pyrazin-8-yl]-(4-morpholin-4-yl-phenyl)-amine] | 0.101 to 0.5 | > 1 | – |
| C[C@@H]1CN(c2ccc(Nc3ncc(-c4cc(C(N)=O)co4)n4ccnc34)cc2)[C@@H](C)CN1C [Compound 187] | 0.001 to 0.1 | > 1 | – |
| CN1CCN(c2ccc(Nc3ncc(-c4cc(C(N)=O)co4)n4ccnc34)cc2)CC1 [Compound 151] | 0.001 to 0.1 | > 1 | – |
| CN1CCN(c2ccc(Nc3ncc(-c4cc(F)c(C(N)=O)c(F)c4)n4ccnc34)cc2)CC1 [Compound 140] | 0.101 to 0.5 | > 1 | – |
| c1cn(-c2ccc(Nc3ncc(-c4cn[nH]c4)n4ccnc34)cc2)cn1 [Compound 168, (4-Imidazol-1-yl-phenyl)-[5-(1H-pyrazol-4-yl)-imidazo[1,2-a]pyrazin-8-yl]-amine] | > 1 | > 1 | – |
| Cn1nnc(-c2ccc(Nc3ncc(-c4cn[nH]c4)n4ccnc34)cc2)n1 [Compound 169, [4-(2-Methyl-2H-tetrazol-5-yl)-phenyl]-[5-(1H-pyrazol-4-yl)-imidazo[1,2-a]pyrazin-8-yl]-amine] | > 1 | > 1 | – |
| Cc1oc(-c2cnc(Nc3ccc(N4CCOCC4)cc3)c3nccn23)cc1C(N)=O [Compound 188] | > 1 | > 1 | – |
| CN1CCN(c2ccc(Nc3ncc(-c4cc(C(N)=O)cs4)n4ccnc34)cc2)CC1 [Compound 145, 5-{8-[4-(4-Methyl-piperazin-1-yl)-phenylamino]-imidazo[1,2-a]pyrazin-5-yl}-thiophene-3-carboxylic acid amide] | > 1 | > 1 | – |
| Cc1[nH]ncc1-c1cnc(Nc2ccc(N3CCOCC3)cc2)c2nccn12 [Compound 176] | 0.501 to 1 | > 1 | – |
| O=C(NC1CCNC1)c1ccc(Nc2ncc(-c3cn[nH]c3)n3ccnc23)cc1 (stereo not shown) [Compound 55] | 0.101 to 0.5 | > 1 | – |
| NC(=O)c1c(F)cc(-c2cnc(Nc3ccc(N4CCOCC4)cc3)c3nccn23)cc1F [Compound 165] | > 1 | > 1 | – |
